Molecular target: T1, Receptor-interacting serine/threonine-protein kinase 1 (Homo sapiens, UniProt Q13546)
T1 sequence (Q13546 whole entry): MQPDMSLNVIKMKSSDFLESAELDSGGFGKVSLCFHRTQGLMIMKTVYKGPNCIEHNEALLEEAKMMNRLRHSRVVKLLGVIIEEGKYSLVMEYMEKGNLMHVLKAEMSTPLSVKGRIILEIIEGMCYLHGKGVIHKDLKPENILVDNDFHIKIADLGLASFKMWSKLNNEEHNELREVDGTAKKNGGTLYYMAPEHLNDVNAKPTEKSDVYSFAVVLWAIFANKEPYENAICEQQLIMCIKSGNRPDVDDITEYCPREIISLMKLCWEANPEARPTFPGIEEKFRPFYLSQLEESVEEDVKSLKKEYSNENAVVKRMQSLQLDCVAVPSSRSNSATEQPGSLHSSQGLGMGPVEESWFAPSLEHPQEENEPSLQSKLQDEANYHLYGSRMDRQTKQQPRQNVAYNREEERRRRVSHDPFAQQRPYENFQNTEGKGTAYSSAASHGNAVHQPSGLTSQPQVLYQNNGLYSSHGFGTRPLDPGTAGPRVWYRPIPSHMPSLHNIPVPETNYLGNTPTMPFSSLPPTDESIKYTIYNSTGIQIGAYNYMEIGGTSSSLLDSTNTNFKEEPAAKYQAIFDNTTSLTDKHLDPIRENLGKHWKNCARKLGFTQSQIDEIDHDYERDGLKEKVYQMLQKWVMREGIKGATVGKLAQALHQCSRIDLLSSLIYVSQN
Experiment: RIPK1-ADP-Glo Enzymatic Assay
Protocol: In this assay, the potency (EC50) of each compound was determined from a ten-point (1:3 serial dilution: top compound concentration of 100000 nM) titration curve using the following outlined procedure. To each well of a white ProxiPlus 384 well-plate, 30 nL of compound (1% DMSO in final assay volume of 3 μL) was dispensed, followed by the addition of 2 μL of 1x assay buffer (25 mM Hepes 7.3, 20 mM MgCl2, 50 mM NaCl, 1 mM DTT, 0.005% Tween20, and 0.02% BSA) containing 37.5 nM of GST-RIPK1 (recombinant GST-RIPK1 kinase domain (residues 1-327) enzyme produced from baculovirus-transfected Sf21 cells: MW=62 kDa). Plates were placed in an ambient temperature humidified chamber for a 30 minutes pre-incubation with compound. Subsequently, each reaction was initiated by the addition of 1 μL 1× assay buffer containing 900 μM ATP and […]. The final reaction in each well of 3 μL consists of 25 nM of GST-RIPK1, 300 µM ATP, and 3 μM dephosphorylated-MBP. Kinase reactions were allowed to proceed for 150 minutes prior to adding ADP-Glo reagents per Promega's outlined kit protocol. Dose-response curves were generated by plotting percent effect (% product conversion: Y-axis) vs. Logio compound concentrations (X-axis).

| Compound | EC50 [nM] |
| --- | --- |
| O=C1N2[C@H](c3cc(F)cc(F)c3)CCN2CC12CCN(c1cc(Cl)c(F)cn1)CC2 [US20240425524, Example 1.10] | 10 |
| Cc1csc2ncnc(N3CCC4(CC3)CN3CC[C@@H](c5cc(F)cc(F)c5)N3C4=O)c12 [US20240425524, Example 1.15] | 17 |

From BindingDB's records for patent US20240425524 (Merck Sharp & Dohme, 2024)
